melting point | Compound
204.9 to 208.5 °C | Br.CCCOc1ccc(CN2CCN(C(=O)c3cc4ccc(Oc5ccc(N(C)C(=O)c6ccc(Cl)c(Cl)c6)cn5)cc4n3C)CC2)cc1 [Example 487, 3,4-Dichloro-N-methyl-N-(6-{1-methyl-2-[4-(4-propoxybenzyl)-piperazine-1-carbonyl]-1H-indol-6-yloxy}pyridin-3-yl)benzamide hydrobromide]
185.6 to 189.3 °C | Br.CN(C(=O)c1ccc(Cl)c(Cl)c1)c1ccc(Oc2ccc3cc(C(=O)N4CCN(Cc5ccc(OC(F)F)cc5)CC4)n(C)c3c2)nc1 [Example 488, 3,4-Dichloro-N-(6-{2-[4-(4-difluoromethoxybenzyl)piperazine-1-carbonyl]-1-methyl-1H-indol-6-yloxy}pyridin-3-yl)-N-methyl-benzamide hydrobromide]
225.4 to 227.1 °C | Br.CN(C(=O)c1ccc(Cl)c(Cl)c1)c1ccc(Oc2ccc3cc(C(=O)N4CCN(Cc5ccc6c(c5)OC(F)(F)O6)CC4)n(C)c3c2)nc1 [Example 489, 3,4-Dichloro-N-(6-{2-[4-(2,2-difluorobenzo[1,3]dioxol-5-yl-methyl)piperazine-1-carbonyl]-1-methyl-1H-indol-6-yloxy}pyridin-3-yl)-N-methylbenzamide hydrobromide]
157.7 to 160.2 °C | Cn1c(C(=O)N2CCN(Cc3ccc(OC(CF)CF)cc3)CC2)cc2ccc(Oc3ccc(NS(=O)(=O)C4=CC=C(Cl)C(C)(Cl)C4)cn3)cc21 (stereo not drawn) [Example 506, 3,4-Dichloro-N-[6-(2-{4-[4-(2-fluoro-1-fluoromethylethoxy)-benzyl]piperazine-1-carbonyl}-1-methyl-1H-indol-6-yloxy)pyridin-3-yl]-M-methylbenzenesulfonamide]
149.9 to 151.3 °C | CN(c1ccc(Oc2ccc3cc(C(=O)N4CCN(Cc5ccc6c(c5)OC(F)(F)O6)CC4)n(C)c3c2)nc1)S(=O)(=O)c1ccc(Cl)c(Cl)c1 [Example 508, 3,4-Dichloro-N-(6-{2-[4-(2,2-difluorobenzo[1,3]dioxol-5-yl-methyl)piperazine-1-carbonyl]-1-methyl-1H-indol-6-yloxy}pyridin-3-yl)-N-methylbenzenesulfonamide]
223.7 to 224.8 °C | Br.CCCOc1ccc(CN2CCN(C(=O)c3cc4ccc(Oc5ccc(NS(=O)(=O)c6ccc(C(F)(F)F)cc6)cn5)cc4n3C)CC2)cc1 [Example 511, N-(6-{1-Methyl-2-[4-(4-propoxybenzyl)piperazine-1-carbonyl]-1H-indol-6-yloxy}pyridin-3-yl)-4-trifluoromethylbenzenesulfonamide hydrobromide]
168.4 to 168.6 °C | CN(c1ccc(Oc2ccc3cc(C(=O)N4CCN(Cc5ccc(OCC(F)F)cc5)CC4)n(C)c3c2)nc1)S(=O)(=O)c1ccc(Cl)c(Cl)c1 [Example 512, 3,4-Dichloro-N-[6-(2-{4-[4-(2,2-difluoroethoxy)benzyl]piperazine-1-carbonyl}-1-methyl-1H-indol-6-yloxy)pyridin-3-yl]-N-methyl-benzenesulfonamide]
195.2 to 196.8 °C | CN(c1ccc(Oc2ccc3cc(C(=O)N4CCN(Cc5ccc(OCCF)cc5)CC4)n(C)c3c2)nc1)S(=O)(=O)c1ccc(Cl)c(Cl)c1 [Example 513, 3,4-Dichloro-N-[6-(2-{4-[4-(2-fluoroethoxy)benzyl]piperazine-1-carbonyl}-1-methyl-1H-indol-6-yloxy)pyridin-3-yl]-N-methyl-benzenesulfonamide]
194.1 to 195.8 °C | CN(c1ccc(Oc2ccc3cc(C(=O)N4CCN(Cc5ccc(OCC6CC6)cc5)CC4)n(C)c3c2)nc1)S(=O)(=O)c1ccc(Cl)c(Cl)c1 [Example 514, 3,4-Dichloro-N-(6-{2-[4-(4-cyclopropylmethoxybenzyl)piperazine-1-carbonyl]-1-methyl-1H-indol-6-yloxy}pyridin-3-yl)-N-methyl-benzenesulfonamide]
143.4 to 147.2 °C | CN(c1ccc(Oc2ccc3cc(C(=O)N4CCN(Cc5ccc(OC(F)F)cc5)CC4)n(C)c3c2)nc1)S(=O)(=O)c1ccc(Cl)c(Cl)c1 [Example 515, 3,4-Dichloro-N-(6-{2-[4-(4-difluoromethoxybenzyl)piperazine-1-carbonyl]-1-methyl-1H-indol-6-yloxy}pyridin-3-yl)-N-methyl-benzenesulfonamide]
179.1 to 179.7 °C | CC(C)Oc1ccc(CN2CCN(C(=O)c3cc4ccc(Oc5ccc(N(C)S(=O)(=O)c6ccc(Cl)c(Cl)c6)cn5)cc4n3C)CC2)cn1 [Example 517, 3,4-Dichloro-N-(6-{2-[4-(6-isopropoxypyridin-3-ylmethyl)-piperazine-1-carbonyl]-1-methyl-1H-indol-6-yloxy}pyridin-3-yl)-N-methylbenzenesulfonamide]
116.5 to 116.6 °C | Cc1ccc(S(=O)(=O)N(C)c2ccc(Oc3ccc4cc(C(=O)N5CCN(Cc6ccc(OC(CF)CF)cc6)CC5)n(C)c4c3)nc2)cc1 [Example 523, N-[6-(2-{4-[4-(2-Fluoro-1-fluoromethylethoxy)benzyl]piperazine-1-carbonyl}-1-methyl-1H-indol-6-yloxy)pyridin-3-yl]-4,N-dimethyl-benzenesulfonamide]
121.9 to 122.5 °C | Cc1ccc(S(=O)(=O)N(C)c2ccc(Oc3ccc4cc(C(=O)N5CCN(Cc6ccc(OCC(F)F)cc6)CC5)n(C)c4c3)nc2)cc1 [Example 524, N-[6-(2-{4-[4-(2,2-Difluoroethoxy)benzyl]piperazine-1-carbonyl}-1-methyl-1H-indol-6-yloxy)pyridin-3-yl]-4,N-dimethylbenzene-sulfonamide]
191.8 to 194.4 °C | CN(c1ccc(Oc2ccc3c(c2)cc(C(=O)N2CCN(Cc4ccc(OCC(F)(F)F)cc4)CC2)n3C)nc1)S(=O)(=O)c1ccc(C(F)(F)F)cc1 [Example 527, N-Methyl-N-[6-(1-methyl-2-{4-[4-(2,2,2-trifluoroethoxy)benzyl]-piperazine-1-carbonyl}-1H-indol-5-yloxy)pyridin-3-yl]-4-tri-fluoromethylbenzenesulfonamide]
174.8 to 175.8 °C | CN(c1ccc(Oc2ccc3c(c2)cc(C(=O)N2CCN(Cc4ccc(OCC(F)(F)F)cc4)CC2)n3C)nc1)S(=O)(=O)c1ccc(Cl)c(Cl)c1 [Example 528, 3,4-Dichloro-N-methyl-N-[6-(1-methyl-2-{4-[4-(2,2,2-trifluoro-ethoxy)benzyl]piperazine-1-carbonyl}-1H-indol-5-yloxy)pyridin-3-yl]benzenesulfonamide]
135.6 to 138.6 °C | Cc1ccc(S(=O)(=O)N(C)c2ccc(Oc3ccc4cc(C(=O)N5CCN(Cc6ccc(OCC7CC7)cc6)CC5)n(C)c4c3)nc2)cc1 [Example 530, N-(6-{2-[4-(4-Cyclopropylmethoxybenzyl)piperazine-1-carbonyl]-1-methyl-1H-indol-6-yloxy}pyridin-3-yl)-4,N-dimethylbenzene-sulfonamide]
138.7 to 139.8 °C | Cc1ccc(S(=O)(=O)N(C)c2ccc(Oc3ccc4cc(C(=O)N5CCN(Cc6ccc(OCCF)cc6)CC5)n(C)c4c3)nc2)cc1 [Example 531, N-[6-(2-{4-[4-(2-Fluoroethoxy)benzyl]piperazine-1-carbonyl}-1-methyl-1H-indol-6-yloxy)pyridin-3-yl]-4,N-dimethylbenzene-sulfonamide]
214.5 to 218.5 °C (dec.) | Br.Cc1ccc(S(=O)(=O)N(C)c2ccc(Oc3ccc4cc(C(=O)N5CCN(Cc6ccc(OC(F)F)cc6)CC5)n(C)c4c3)nc2)cc1 [Example 532, N-(6-{2-[4-(4-Difluoromethoxybenzyl)piperazine-1-carbonyl]-1-methyl-1H-indol-6-yloxy}pyridin-3-yl)-4,N-dimethylbenzene-sulfonamide hydrobromide]
131.1 to 132.8 °C | Cc1ccc(S(=O)(=O)N(C)c2ccc(Oc3ccc4cc(C(=O)N5CCN(Cc6ccc(OC(C)C)nc6)CC5)n(C)c4c3)nc2)cc1 [Example 534, N-(6-{2-[4-(6-Isopropoxypyridin-3-ylmethyl)piperazine-1-carbonyl]-1-methyl-1H-indol-6-yloxy}pyridin-3-yl)-4,N-dimethyl-benzenesulfonamide]
239.8 to 240.8 °C | Br.Cn1c(C(=O)N2CCN(Cc3ccc(OC(CF)CF)cc3)CC2)cc2ccc(Oc3ccc(NC(=O)c4ccc(C(F)(F)F)cc4Cl)cn3)cc21 [Example 537, 2-Chloro-N-[6-(2-{4-[4-(2-fluoro-1-fluoromethylethoxy)benzyl]-piperazine-1-carbonyl}-1-methyl-1H-indol-6-yloxy)pyridin-3-yl]-4-trifluoromethylbenzamide hydrobromide]
196 to 198 °C | Br.Br.CN(C(=O)c1ccc(C(F)(F)F)cc1)c1ccc(Oc2ccc3c(c2)cc(C(=O)N2CCN(Cc4ccncc4)CC2)n3C)nc1 [Example 548, N-Methyl-N-{6-[1-methyl-2-(4-pyridin-4-ylmethylpiperazine-1-carbonyl)-1H-indol-5-yloxy]pyridin-3-yl}-4-trifluoromethyl-benzamide dihydrobromide]
218 to 220 °C | Br.CN(C(=O)c1ccc(C(F)(F)F)cc1)c1ccc(Oc2ccc3c(c2)cc(C(=O)N2CCN(Cc4ccc(F)cc4)CC2)n3C)nc1 [Example 549, N-(6-{2-[4-(4-Fluorobenzyl)piperazine-1-carbonyl]-1-methyl-1H-indol-5-yloxy}pyridin-3-yl)-N-methyl-4-trifluoromethylbenzamide hydrobromide]

Compound | melting point
CC(C)CCOc1ccc(CN2CCN(C(=O)c3cc4ccc(Oc5ccc(N(C)S(=O)(=O)c6ccc(Cl)c(Cl)c6)cn5)cc4n3C)CC2)cc1 [Example 516, 3,4-Dichloro-N-methyl-N-[6-(1-methyl-2-{4-[4-(3-methylbutoxy)-benzyl]piperazine-1-carbonyl}-1H-indol-6-yloxy)pyridin-3-yl]-benzenesulfonamide] | 145.9 to 147.1 °C
Br.Cc1ccc(S(=O)(=O)N(C)c2ccc(Oc3ccc4cc(C(=O)N5CCN(Cc6ccc(OCCC(C)C)cc6)CC5)n(C)c4c3)nc2)cc1 [Example 533, 4,N-Dimethyl-N-[6-(1-methyl-2-{4-[4-(3-methylbutoxy)benzyl]-piperazine-1-carbonyl}-1H-indol-6-yloxy)pyridin-3-yl]benzene-sulfonamide hydrobromide] | 236.5 to 238.3 °C (dec.)
